Results as given in patent US20260262643A1, “HERBICIDAL BENZOXAZINES” (FMC CORPORATION, priority 2022, published 2026).

Columns and labels:
[1] = test system: barnyardgrass; assay: Test C preemergence; type: in vivo, Echinochloa crusgalli; conditions: for Barnyardgrass plant response rating: preemergence, 0 to 100 scale (0 no effect, 100 complete control)
How it was run: (§1)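 Seeds sown in loam soil–sand blend received a directed preemergence soil spray of test chemical in non-phytotoxic solvent with surfactant; postemergence plants (2–10 cm, one- to two-leaf stage) were sprayed with the same formulation. Greenhouse-held 10 days, then visually rated for injury versus untreated controls, 0 (no effect) to 100 (complete control).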

[2] = test system: blackgrass; assay: Test C preemergence; type: in vivo, Alopecurus myosuroides; conditions: for Blackgrass plant response rating: preemergence, 0 to 100 scale (0 no effect, 100 complete control)
How it was run: as §1

[3] = test system: corn; assay: Test C preemergence; type: in vivo, Zea mays; conditions: for Corn plant response rating: preemergence, 0 to 100 scale (0 no effect, 100 complete control)
How it was run: as §1

[4] = test system: green foxtail; assay: Test C preemergence; type: in vivo, Setaria viridis; conditions: for Foxtail, Green plant response rating: preemergence, 0 to 100 scale (0 no effect, 100 complete control)
How it was run: as §1

[5] = test system: kochia; assay: Test C preemergence; type: in vivo, Bassia scoparia; conditions: for Kochia plant response rating: preemergence, 0 to 100 scale (0 no effect, 100 complete control)
How it was run: as §1

[6] = test system: oat, wild; assay: Test C preemergence; type: in vivo, Avena fatua; conditions: for Oat, Wild plant response rating: preemergence, 0 to 100 scale (0 no effect, 100 complete control)
How it was run: as §1

[7] = test system: pigweed, palmer; assay: Test C preemergence; type: in vivo, Amaranthus palmeri; conditions: for Pigweed, Palmer plant response rating: preemergence, 0 to 100 scale (0 no effect, 100 complete control)
How it was run: as §1

[8] = test system: ragweed; assay: Test C preemergence; type: in vivo, Ambrosia artemisiifolia; conditions: for Ragweed plant response rating: preemergence, 0 to 100 scale (0 no effect, 100 complete control)
How it was run: as §1

[9] = test system: ryegrass, Italian; assay: Test C preemergence; type: in vivo, Lolium multiflorum; conditions: for Ryegrass, Italian plant response rating: preemergence, 0 to 100 scale (0 no effect, 100 complete control)
How it was run: as §1

[10] = test system: soybean; assay: Test C preemergence; type: in vivo, Glycine max; conditions: for Soybean plant response rating: preemergence, 0 to 100 scale (0 no effect, 100 complete control)
How it was run: as §1

[11] = test system: wheat; assay: Test C preemergence; type: in vivo, Triticum aestivum; conditions: for Wheat plant response rating: preemergence, 0 to 100 scale (0 no effect, 100 complete control)
How it was run: as §1

[12] = test system: barnyardgrass; assay: Test C postemergence; type: in vivo, Echinochloa crusgalli; conditions: 10 days
How it was run: as §1

[13] = test system: blackgrass; assay: Test C postemergence; type: in vivo, Alopecurus myosuroides; conditions: 10 days
How it was run: as §1

[14] = test system: corn; assay: Test C postemergence; type: in vivo, Zea mays; conditions: 10 days
How it was run: as §1

[15] = test system: green foxtail; assay: Test C postemergence; type: in vivo, Setaria viridis; conditions: 10 days
How it was run: as §1

[16] = test system: kochia; assay: Test C postemergence; type: in vivo, Bassia scoparia; conditions: 10 days
How it was run: as §1

[17] = test system: oat, wild; assay: Test C postemergence; type: in vivo, Avena fatua; conditions: 10 days
How it was run: as §1

[18] = test system: pigweed, palmer; assay: Test C postemergence; type: in vivo, Amaranthus palmeri; conditions: 10 days
How it was run: as §1

[19] = test system: ragweed; assay: Test C postemergence; type: in vivo, Ambrosia artemisiifolia; conditions: 10 days
How it was run: as §1

[20] = test system: ryegrass, Italian; assay: Test C postemergence; type: in vivo, Lolium multiflorum; conditions: 10 days
How it was run: as §1

[21] = test system: soybean; assay: Test C postemergence; type: in vivo, Glycine max; conditions: 10 days
How it was run: as §1

[22] = test system: wheat; assay: Test C postemergence; type: in vivo, Triticum aestivum; conditions: 10 days
How it was run: as §1

[23] = test system: galium; assay: Test C postemergence; type: in vivo, Galium aparine; conditions: 10 days
How it was run: as §1

[24] = test system: horseweed; assay: Test C postemergence; type: in vivo, Erigeron canadensis; conditions: 10 days
How it was run: as §1

[25] = test system: barnyardgrass; assay: Test D flooded paddy test; type: in vivo, Echinochloa crus-galli; conditions: 250 g ai/ha, applied to paddy water, visual rating after 13 to 14 days, scale 0 to 100 (0 no effect, 100 complete control)
How it was run: (§2)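 Plants at the 2-leaf stage were grown in pots flooded to 3 cm, and compound was applied directly into the paddy water, with depth kept throughout. After 13–14 days in a greenhouse, injury was rated visually against untreated controls on a 0–100 scale (100 = complete control); a dash means not tested.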

[26] = test system: ducksalad; assay: Test D flooded paddy test; type: in vivo, Heteranthera limosa; conditions: 250 g ai/ha, applied to paddy water, visual rating after 13 to 14 days, scale 0 to 100 (0 no effect, 100 complete control)
How it was run: as §2

[27] = test system: rice; assay: Test D flooded paddy test; type: in vivo, Oryza sativa; conditions: 250 g ai/ha, applied to paddy water, visual rating after 13 to 14 days, scale 0 to 100 (0 no effect, 100 complete control)
How it was run: as §2

[28] = test system: sedge, umbrella; assay: Test D flooded paddy test; type: in vivo, Cyperus difformis; conditions: 250 g ai/ha, applied to paddy water, visual rating after 13 to 14 days, scale 0 to 100 (0 no effect, 100 complete control)
How it was run: as §2

[29] = 125 g ai/ha, postemergence, 0 to 100 scale, 0 no effect, 100 complete control
[30] = 500 g ai/ha, postemergence, 0 to 100 scale (0 no effect, 100 complete control)
[31] = Preemergence, 125 g ai/ha, 0 to 100 scale, 0 no effect, 100 complete control
[32] = Postemergence, 125 g ai/ha, 0 to 100 scale (0 no effect, 100 complete control)

CC(C)c1ncn(-c2cccc(C(=O)N3CC(C(F)(F)F)Oc4c(Cl)cccc43)c2)n1 (single isomer, unassigned) [Compound 288]
30: Barnyardgrass plant response rating ([1]; 500 g ai/ha) | Plant response rating, Ragweed [19, 29] | Plant response rating, Ragweed [19, 30]
80: Pigweed, Palmer plant response rating ([7]; 500 g ai/ha) | Ryegrass, Italian plant response rating ([9]; 500 g ai/ha) | Ryegrass, Italian plant response rating ([9]; Test C, 125 g ai/ha) | Plant response rating, Kochia [16, 30] | Plant response rating, Soybean [21, 30]
70: Foxtail, Green plant response rating ([4]; 500 g ai/ha)
60: Blackgrass plant response rating ([2]; 500 g ai/ha) | Plant response rating, Soybean [21, 29] | Plant response rating, Galium [23, 29]
40: Soybean plant response rating ([10]; 500 g ai/ha) | Soybean plant response rating ([10]; Test C, 125 g ai/ha) | Plant response rating, Kochia [16, 29]
20: Oat, Wild plant response rating ([6]; 500 g ai/ha) | Oat, Wild plant response rating ([6]; Test C, 125 g ai/ha) | Wheat plant response rating ([11]; 500 g ai/ha) | Plant response rating, Foxtail, Green [15, 30] | Plant response rating, Ryegrass, Italian [20, 30] | Plant response rating, Wheat [22, 30]
0: Barnyardgrass plant response rating ([1]; Test C, 125 g ai/ha) | Corn plant response rating ([3]; Test C, 125 g ai/ha) | Foxtail, Green plant response rating ([4]; Test C, 125 g ai/ha) | Ragweed plant response rating ([8]; 500 g ai/ha) | Ragweed plant response rating ([8]; Test C, 125 g ai/ha) | Wheat plant response rating ([11]; Test C, 125 g ai/ha) | Plant response rating, Blackgrass [13, 29] | Plant response rating, Corn [14, 29] | Plant response rating, Oat, Wild [17, 29] | Plant response rating, Oat, Wild [17, 30] | Plant response rating, Ryegrass, Italian [20, 29] | Plant response rating, Horseweed [24, 29] | Plant response rating, Horseweed [24, 30] | Plant response rating, Barnyardgrass (Flood) [25] | Plant response rating, Ducksalad (Flood) [26] | Plant response rating, Rice (Flood) [27] | Plant response rating, Sedge, Umbrella (Flood) [28]
50: Kochia plant response rating ([5]; 500 g ai/ha) | Pigweed, Palmer plant response rating ([7]; Test C, 125 g ai/ha) | Plant response rating, Pigweed, Palmer [18, 30] | Plant response rating, Galium [23, 30]
10: Blackgrass plant response rating ([2]; Test C, 125 g ai/ha) | Corn plant response rating ([3]; 500 g ai/ha) | Kochia plant response rating ([5]; Test C, 125 g ai/ha) | Plant response rating, Barnyardgrass [12, 29] | Plant response rating, Barnyardgrass [12, 30] | Plant response rating, Blackgrass [13, 30] | Plant response rating, Corn [14, 30] | Plant response rating, Foxtail, Green [15, 29] | Plant response rating, Pigweed, Palmer [18, 29] | Plant response rating, Wheat [22, 29]

CSc1ccc(-n2cnc(C(C)C)n2)cc1C(=O)N1C[C@H](C)Oc2c(Cl)cccc21 [Compound 391]
35: Plant response rating, Ducksalad (Flood) [26]
20: Corn plant response rating ([3]; 500 g ai/ha) | Plant response rating, Corn [3, 31] | Plant response rating, Ryegrass, Italian [9, 31]
80: Blackgrass plant response rating ([2]; 500 g ai/ha) | Oat, Wild plant response rating ([6]; 500 g ai/ha) | Plant response rating, Blackgrass [13, 30] | Plant response rating, Foxtail, Green [15, 30] | Plant response rating, Oat, Wild [17, 30]
30: Plant response rating, Oat, Wild [6, 31] | Wheat plant response rating ([11]; 500 g ai/ha) | Plant response rating, Oat, Wild [17, 32] | Plant response rating, Wheat [22, 32]
10: Plant response rating, Ragweed [8, 31] | Plant response rating, Barnyardgrass (Flood) [25]
50: Plant response rating, Blackgrass [2, 31] | Plant response rating, Soybean [10, 31] | Plant response rating, Ryegrass, Italian [20, 32]
0: Plant response rating, Wheat [11, 31] | Plant response rating, Horseweed [24, 32] | Plant response rating, Rice (Flood) [27]
90: Plant response rating, Kochia [5, 31] | Ryegrass, Italian plant response rating ([9]; 500 g ai/ha) | Soybean plant response rating ([10]; 500 g ai/ha) | Plant response rating, Pigweed, Palmer [18, 32] | Plant response rating, Ragweed [19, 30]
100: Foxtail, Green plant response rating ([4]; 500 g ai/ha) | Plant response rating, Foxtail, Green [4, 31] | Kochia plant response rating ([5]; 500 g ai/ha) | Pigweed, Palmer plant response rating ([7]; 500 g ai/ha) | Plant response rating, Pigweed, Palmer [7, 31] | Plant response rating, Kochia [16, 30] | Plant response rating, Kochia [16, 32] | Plant response rating, Pigweed, Palmer [18, 30] | Plant response rating, Ryegrass, Italian [20, 30] | Plant response rating, Soybean [21, 30] | Plant response rating, Soybean [21, 32] | Plant response rating, Galium [23, 30] | Plant response rating, Galium [23, 32]
40: Plant response rating, Barnyardgrass [12, 32] | Plant response rating, Wheat [22, 30]
70: Plant response rating, Foxtail, Green [15, 32]
60: Plant response rating, Barnyardgrass [1, 31] | Ragweed plant response rating ([8]; 500 g ai/ha) | Plant response rating, Barnyardgrass [12, 30] | Plant response rating, Blackgrass [13, 32] | Plant response rating, Corn [14, 30] | Plant response rating, Corn [14, 32] | Plant response rating, Ragweed [19, 32] | Plant response rating, Horseweed [24, 30]
45: Plant response rating, Sedge, Umbrella (Flood) [28]
